Laboratory results as given in ChEMBL document CHEMBL1154943, “Exploration of SAR features by modifications of thiazoleacetic acids as CRTH2 antagonists” (Bioorg Med Chem Lett, 2010).

Columns and labels:
[1] = target: T1, Prostaglandin D2 receptor 2 (Homo sapiens, UniProt Q9Y5Y4); test: Displacement of [3H]PGD2 from human CRTH2 receptor expressed in HEK385-7 cells; assay type: cell-based
T1 sequence (Q9Y5Y4 whole entry): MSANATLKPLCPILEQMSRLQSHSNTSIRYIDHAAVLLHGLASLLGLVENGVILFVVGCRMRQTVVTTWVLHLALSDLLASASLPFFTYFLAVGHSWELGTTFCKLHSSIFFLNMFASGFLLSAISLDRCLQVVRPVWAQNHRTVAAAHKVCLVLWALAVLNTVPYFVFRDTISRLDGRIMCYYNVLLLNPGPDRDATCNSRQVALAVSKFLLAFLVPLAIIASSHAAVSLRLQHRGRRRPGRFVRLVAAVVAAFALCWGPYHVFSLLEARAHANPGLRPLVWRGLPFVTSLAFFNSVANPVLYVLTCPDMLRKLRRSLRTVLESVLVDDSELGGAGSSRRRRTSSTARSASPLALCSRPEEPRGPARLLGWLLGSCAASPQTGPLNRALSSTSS

[2] = target: T1, Prostaglandin D2 receptor 2; test: Antagonist activity at human CRTH2 receptor expressed in HEK385-7 cells assessed as inhibition of PGD2-mediated beta-arrestin translocation preincubated 5 mins prior to PGD2 challenge measured after 5 mins by BRET assay; assay type: functional, cell-based
[3] = target: T2, Prostaglandin D2 receptor 2 (Homo sapiens) (UniProt Q9Y5Y4); test: Antagonist activity at human CRTH2 receptor expressed in HEK385-7 cells assessed as inhibition of PGD2-mediated beta-arrestin translocation preincubated 5 mins prior to PGD2 challenge measured after 5 mins by BRET assay relative to control; assay type: functional, cell-based
T2 sequence (whole entry): T1 sequence (Q9Y5Y4 whole entry)

[4] = Inhibition of guinea pig DP receptor; design: species or system Cavia porcellus
[5] = target: T3, Prostaglandin D2 receptor 2 (Rattus norvegicus, UniProt Q6XKD3); test: Inhibition of rat CRTH2 receptor
T3 sequence (Q6XKD3 whole entry): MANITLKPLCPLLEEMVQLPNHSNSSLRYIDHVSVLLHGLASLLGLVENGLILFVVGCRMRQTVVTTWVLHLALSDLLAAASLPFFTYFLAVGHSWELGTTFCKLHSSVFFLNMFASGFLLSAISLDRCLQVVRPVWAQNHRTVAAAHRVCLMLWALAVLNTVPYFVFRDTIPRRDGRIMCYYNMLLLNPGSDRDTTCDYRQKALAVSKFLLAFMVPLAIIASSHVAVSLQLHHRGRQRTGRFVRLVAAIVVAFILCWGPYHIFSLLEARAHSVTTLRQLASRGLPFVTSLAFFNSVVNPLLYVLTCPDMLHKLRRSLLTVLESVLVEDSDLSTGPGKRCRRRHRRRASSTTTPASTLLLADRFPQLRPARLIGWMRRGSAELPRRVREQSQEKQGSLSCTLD

Thromboxane A2 receptor = target: T4, Thromboxane A2 receptor (Homo sapiens, UniProt P21731); test: Inhibition of thromboxane A2 receptor
T4 sequence (P21731 whole entry): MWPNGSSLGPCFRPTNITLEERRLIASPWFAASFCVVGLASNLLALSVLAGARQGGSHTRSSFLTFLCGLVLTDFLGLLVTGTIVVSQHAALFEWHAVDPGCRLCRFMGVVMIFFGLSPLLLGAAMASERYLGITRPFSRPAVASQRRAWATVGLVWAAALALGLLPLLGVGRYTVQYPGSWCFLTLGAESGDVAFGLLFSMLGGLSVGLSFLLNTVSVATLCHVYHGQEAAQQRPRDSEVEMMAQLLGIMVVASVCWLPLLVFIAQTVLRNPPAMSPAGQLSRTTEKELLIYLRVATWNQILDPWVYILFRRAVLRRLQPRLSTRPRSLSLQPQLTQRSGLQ

[6] = target: T5, Prostaglandin D2 receptor (Mus musculus, UniProt P70263); test: Inhibition of mouse DP receptor
T5 sequence (P70263 whole entry): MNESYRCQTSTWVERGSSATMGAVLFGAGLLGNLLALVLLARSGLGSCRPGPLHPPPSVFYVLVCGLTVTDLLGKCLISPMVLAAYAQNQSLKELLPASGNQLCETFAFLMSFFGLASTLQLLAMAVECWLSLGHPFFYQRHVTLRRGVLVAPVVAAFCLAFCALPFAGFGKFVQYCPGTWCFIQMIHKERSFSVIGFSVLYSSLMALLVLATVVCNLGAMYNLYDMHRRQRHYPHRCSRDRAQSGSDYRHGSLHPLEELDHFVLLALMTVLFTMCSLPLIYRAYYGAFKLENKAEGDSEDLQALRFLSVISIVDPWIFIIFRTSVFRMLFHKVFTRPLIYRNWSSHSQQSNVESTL

[7] = target: T6, Prostaglandin D2 receptor (Homo sapiens, UniProt Q13258); test: Inhibition of human DP receptor
T6 sequence (Q13258 whole entry): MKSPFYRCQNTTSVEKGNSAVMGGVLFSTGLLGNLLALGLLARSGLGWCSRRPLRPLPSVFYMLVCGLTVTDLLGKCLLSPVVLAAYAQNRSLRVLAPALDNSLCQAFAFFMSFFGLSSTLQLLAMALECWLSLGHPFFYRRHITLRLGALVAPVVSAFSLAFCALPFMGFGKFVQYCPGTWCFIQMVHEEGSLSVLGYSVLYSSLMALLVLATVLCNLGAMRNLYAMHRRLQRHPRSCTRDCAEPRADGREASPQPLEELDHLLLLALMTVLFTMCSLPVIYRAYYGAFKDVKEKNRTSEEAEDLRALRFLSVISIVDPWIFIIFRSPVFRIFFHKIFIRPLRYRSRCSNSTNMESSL

[8] = target: T7, Prostaglandin D2 receptor 2 (Mus musculus, UniProt Q9Z2J6); test: Inhibition of mouse CRTH2 receptor
T7 sequence (Q9Z2J6 whole entry): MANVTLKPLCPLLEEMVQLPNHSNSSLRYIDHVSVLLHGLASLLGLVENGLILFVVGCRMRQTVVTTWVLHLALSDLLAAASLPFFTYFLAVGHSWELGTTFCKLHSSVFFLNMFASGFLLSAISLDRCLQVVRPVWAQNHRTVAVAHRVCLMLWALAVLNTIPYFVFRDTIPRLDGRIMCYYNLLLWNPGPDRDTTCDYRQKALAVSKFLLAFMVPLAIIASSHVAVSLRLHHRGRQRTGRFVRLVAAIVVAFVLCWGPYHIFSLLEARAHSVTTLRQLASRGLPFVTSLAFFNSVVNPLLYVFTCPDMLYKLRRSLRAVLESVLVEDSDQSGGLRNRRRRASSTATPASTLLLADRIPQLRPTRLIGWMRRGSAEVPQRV

[9] = target: T8, Chemoattractant receptor-homologous molecule expressed on Th2 cells (Cavia porcellus, UniProt Q56D28); test: Inhibition of guinea pig CRTH2 receptor
T8 sequence (Q56D28 whole entry): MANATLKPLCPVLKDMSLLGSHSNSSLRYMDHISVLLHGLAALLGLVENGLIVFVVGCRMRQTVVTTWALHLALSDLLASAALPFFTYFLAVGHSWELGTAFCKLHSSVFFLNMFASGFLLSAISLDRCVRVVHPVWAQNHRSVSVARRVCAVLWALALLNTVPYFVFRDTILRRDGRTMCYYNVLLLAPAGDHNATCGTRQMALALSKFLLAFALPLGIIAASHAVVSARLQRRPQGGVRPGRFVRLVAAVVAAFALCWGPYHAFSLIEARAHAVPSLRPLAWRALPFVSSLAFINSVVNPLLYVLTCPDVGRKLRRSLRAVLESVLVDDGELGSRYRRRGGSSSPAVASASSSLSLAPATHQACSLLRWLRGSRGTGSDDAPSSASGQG

SMILES	IC50 [1] [nM]	IC50 [2] [nM]	Efficacy [3] [%]	other results
O=C(O)CCc1cnc(C(c2ccc(F)cc2)c2ccc(F)cc2)nc1-c1cccc(F)c1	2070	> 100000	> 80	
COc1ccc(N(c2ccc(OC)cc2)c2nc(-c3cccc(F)c3)c(CC(=O)O)s2)cc1	15	260	> 80	
O=C(O)Cc1cnc(C(c2ccc(F)cc2)c2ccc(F)cc2)nc1-c1cccc(F)c1	1.9	12	> 80	IC50 [4]: > 100000 nM; IC50 [5]: 7.5 nM; IC50 (Thromboxane A2 receptor): 31000 nM; IC50 [6]: 5900 nM; IC50 [7]: 8500 nM; IC50 [8]: 3.4 nM; IC50 [9]: 29 nM
O=C(O)Cc1sc(N(c2ccccc2)c2ccccc2)nc1-c1ccc(F)cc1	15	98	> 80	
O=C(O)Cc1sc(N(c2ccc(F)cc2)c2ccc(F)cc2)nc1-c1ccc(F)cc1	23	240	> 80	
O=C(O)Cc1[nH]c(C(c2ccc(F)cc2)c2ccc(F)cc2)nc1-c1ccc(F)cc1	9140	> 100000	> 80	
O=C(O)CCc1sc(C(c2ccc(F)cc2)c2ccc(F)cc2)nc1-c1cccc(F)c1	75	1000	> 80	
O=C(O)COc1sc(C(c2ccc(F)cc2)c2ccc(F)cc2)nc1-c1cccc(F)c1	83	200	> 80	
O=C(O)Cc1sc(N(c2ccccc2)c2ccccc2)nc1-c1ccc(Cl)cc1	18	72	> 80	
O=C(O)Cc1cnc(N(c2ccc(F)cc2)c2ccc(F)cc2)nc1-c1cccc(F)c1	1260	> 100000	> 80	
CC(c1ccccc1)(c1ccccc1)c1nc(-c2ccc(F)cc2)c(CC(=O)O)s1	7.9	85	> 80	
N#Cc1ccc(N(c2ccccc2)c2nc(-c3ccc(F)cc3)c(CC(=O)O)s2)cc1	84	460	> 55	
O=C(O)Cc1sc(N(c2ccccc2)c2cccnc2)nc1-c1ccc(F)cc1	43	1500	> 30	
CS(=O)(=O)c1ccc(N(c2ccccc2)c2nc(-c3ccc(F)cc3)c(CC(=O)O)s2)cc1	190	2000	> 30	
O=C(O)Cc1sc(N(c2ccccc2)c2ccccc2)nc1-c1cccc(F)c1	4.4	79	> 80	
COc1ccc(N(c2ccc(OC)cc2)c2ncc(CC(=O)O)c(-c3cccc(F)c3)n2)cc1	2790	> 100000	> 80	
